Like-named read-outs stand apart in the source and are kept apart here.
Columns and labels:
[1] = Pharmacokinetic studies in plasma and brain of mice after i.p. injection; assay type: in vivo, mouse; conditions: for Cmax (mean ± SEM) Brain: normalized to free base dose; for Brain Cmax and AUC compared to equivalent dosing with (2R,6R)-HNK: from Table 1; for Sex-dependent difference: Brain Total exposure (AUC) / Sex-dependent difference: Plasma Total exposure (AUC): standard t-test, F female, M male, NS not statistically different; for Brain level at 4 h post-treatment: LLOQ 5.0 ng/ml
male mice = assay: Forced swim test immobility time 24 h after i.p. treatment; assay type: in vivo, mouse; conditions: for Minimal effective dose to reduce immobility time in the forced swim test: 24 h after injection; for Shape of dose response curve for forced swim test immobility: tested range up to 100 mg/kg
[2] = target: N-methyl-D-aspartate receptor (NMDAR); conditions: cited from earlier work
mice = conditions: i.p., cited from earlier work
[3] = i.p.; ref [4]; cited from earlier work
[4] = read-out: NMDAR binding affinity, ref [31]
[5] = females, but not males, i.p. 5 mg/kg
[6] = both sexes, i.p. 5 mg/kg, 10 min was the earliest time point

SMILES	Cmax (mean ± SEM) Brain ([1]; female CD-1 mice, i.p. 5 mg/kg)	B:P ratio (brain to plasma AUC ratio) ([1]; female mice, i.p. 5 mg/kg)	t1/2 Brain (terminal half-life) ([1]; female mice, i.p. 5 mg/kg)	t1/2 Plasma (terminal half-life) ([1]; female mice, i.p. 5 mg/kg)	Cmax (mean ± SEM) Brain ([1]; male CD-1 mice, i.p. 5 mg/kg)	B:P ratio (brain to plasma AUC ratio) ([1]; male mice, i.p. 5 mg/kg)	t1/2 Brain (terminal half-life) ([1]; male mice, i.p. 5 mg/kg)	t1/2 Plasma (terminal half-life) ([1]; male mice, i.p. 5 mg/kg)	Sex-dependent difference: Brain Total exposure (AUC) [1]	Sex-dependent difference: Plasma Total exposure (AUC) [1]	Minimal effective dose to reduce immobility time in the forced swim test (male mice)	further results
N[C@]1(c2ccccc2Cl)CCC[C@@H](O)C1=O [(2S,6R)-HNK]	177 ± 19.8 ng/g•mg/kg	1.4	45 min	47 min	117 ± 30.6 ng/g•mg/kg	1.2	45 min	45 min	F > M	F > M	3 mg/kg	Brain Cmax and AUC compared to equivalent dosing with (2R,6R)-HNK [1]: approximately three-fold lower; Shape of dose response curve for forced swim test immobility (male mice): U-shaped dose response curves; Ki [2, 4]: > 100 µM
N[C@@]1(c2ccccc2Cl)CCC[C@H](O)C1=O [(2R,6S)-HNK]	166 ± 12.3 ng/g•mg/kg	0.7	23 min	47 min	173 ± 5.4 ng/g•mg/kg	0.6	43 min	55 min	M > F	M > F	1 mg/kg	Brain level at 4 h post-treatment [1, 5]: below LLOQs; Brain Cmax and AUC compared to equivalent dosing with (2R,6R)-HNK [1]: approximately two-fold lower; Shape of dose response curve for forced swim test immobility (male mice): U-shaped dose response curves; Ki [2, 4]: > 100 µM
N[C@]1(c2ccccc2Cl)CCC[C@H](O)C1=O [(2S,6S)-HNK, (2S,6S)-hydroxynorketamine]	993 ± 27.1 ng/g•mg/kg	1.2	44 min	46 min	712 ± 47.3 ng/g•mg/kg	1.0	41 min	44 min	F > M	F > M	30 mg/kg	Cmax and AUC, fold greater than those of (2R,6R)-HNK ([1]; male mice, equivalent doses): 2-3 fold; Shape of dose response curve for forced swim test immobility (male mice): did not demonstrate U-shaped dose responses; Lowest dose reducing forced swim test immobility time (mice; ref [4]): 25 mg/kg; Effect on forced swim test immobility time and measures of anhedonia following chronic stress (mice; mice, 20 mg/kg, ref [23]): reduced forced swim test immobility time and measures of anhedonia; Lowest dose reducing escape failures in the learned helplessness test [3]: 75 mg/kg
N[C@@]1(c2ccccc2Cl)CC[C@@H](O)CC1=O [(2R,5R)-HNK]	152 ± 8.8 ng/g•mg/kg	1.4	28 min	31 min	142 ± 5.6 ng/g•mg/kg	1.2	27 min	30 min		M > F		
C[C@@H]1CC[C@@](N)(c2ccccc2Cl)C(=O)[C@@H]1O [(5R)-methyl-(2R,6R)-HNK, (5R)-methyl-(2R,6R)-hydroxynorketamine]	352 ± 22.4 ng/g•mg/kg	0.4	41 min	49 min	324 ± 13.0 ng/g•mg/kg	0.4	48 min	49 min	M > F	M > F	1 mg/kg	Brain to plasma AUC ratio ([1]; both sexes, i.p. 5 mg/kg): 0.4; Plasma elimination half-life ([1]; both sexes, i.p. 5 mg/kg): 49 min; Tmax brain [1, 6]: 10 min; Tmax plasma (time of observed maximal concentrations) [1, 6]: 10 min; Doses at which immobility time was reduced relative to vehicle (male mice; 24 h after treatment): 1 to 10 mg/kg
N[C@]1(c2ccccc2Cl)CC[C@@H](O)CC1=O [(2S,5R)-HNK]	258 ± 15.4 ng/g•mg/kg	1.0	31 min	28 min	242 ± 9.8 ng/g•mg/kg	0.7	40 min	37 min	M > F	M > F		Tmax brain ([1]; male mice, i.p. 5 mg/kg): 30 min
N[C@]1(c2ccccc2Cl)C[C@H](O)CCC1=O [(2S,4R)-HNK]	190± 13.7 ng/g•mg/kg	1.0	21 min	47 min	160 ± 10.2 ng/g•mg/kg	0.9	23 min	48 min				Brain level at 4 h post-treatment ([1]; both sexes, i.p. 5 mg/kg): below LLOQs
N[C@@]1(c2ccccc2Cl)C[C@H](O)CCC1=O [(2R,4R)-HNK]	490 ± 26.4 ng/g•mg/kg	1.2	29 min	29 min	431 ± 43.5 ng/g•mg/kg	1.3	38 min	35 min	M > F	M > F		
N[C@@]1(c2ccccc2Cl)C[C@@H](O)CCC1=O [(2R,4S)-HNK]	495 ± 28.7 ng/g•mg/kg	1.0	15 min	44 min	758 ± 21.4 ng/g•mg/kg	1.1	32 min	39 min	M > F	M > F		Brain level at 4 h post-treatment [1, 5]: below LLOQs
N[C@]1(c2ccccc2Cl)CC[C@H](O)CC1=O [(2S,5S)-HNK]	129 ± 2.8 ng/g•mg/kg	1.3	17 min	34 min	138 ± 8.3 ng/g•mg/kg	1.2	16 min	27 min				Brain level at 4 h post-treatment ([1]; both sexes, i.p. 5 mg/kg): below LLOQs
N[C@]1(c2ccccc2Cl)C[C@@H](O)CCC1=O [(2S,4S)-HNK]	234 ± 10.9 ng/g•mg/kg	0.9	35 min	42 min	127 ± 9.5 ng/g•mg/kg	0.7	34 min	39 min	F > M	F > M		
CNC1(c2ccccc2Cl)CCCCC1=O (stereo not drawn) [ketamine, reference compound]												Ki ([2]; read-out: Ki, inhibitory actions on NMDARs, ref [19],[31],[32]): 0.25 to 1.06 µM
N[C@@]1(c2ccccc2Cl)CC[C@H](O)CC1=O [(2R,5S)-HNK]	154 ± 3.9 ng/g•mg/kg	1.0	27 min	29 min	106 ± 6.8 ng/g•mg/kg	0.9	27 min	28 min	F > M	F > M		

Source: article PMC9926475 (ACS chemical neuroscience, 2022)
